Reference: patent US20220204449A1, “BIASED AGONISTS OF OPIOID RECEPTORS” (ILDONG PHARMACEUTICAL CO., LTD., priority 2020, published 2022)
Entries after “also recorded” stand apart in the source; their conditions may differ.

Experiments:
Assay type in all cases: cell-based
[1] = biological target: T1, human μ-opioid receptor, OPRM (Homo sapiens, UniProt P35372); assay: PathHunter β-arrestin 2 assay, OPRM cell line
T1 construct: host or cells: HEK-293 overexpressing β-arrestin2 fused to a β-galactosidase fragment
T1 sequence (P35372 whole entry, the tested form may be a part): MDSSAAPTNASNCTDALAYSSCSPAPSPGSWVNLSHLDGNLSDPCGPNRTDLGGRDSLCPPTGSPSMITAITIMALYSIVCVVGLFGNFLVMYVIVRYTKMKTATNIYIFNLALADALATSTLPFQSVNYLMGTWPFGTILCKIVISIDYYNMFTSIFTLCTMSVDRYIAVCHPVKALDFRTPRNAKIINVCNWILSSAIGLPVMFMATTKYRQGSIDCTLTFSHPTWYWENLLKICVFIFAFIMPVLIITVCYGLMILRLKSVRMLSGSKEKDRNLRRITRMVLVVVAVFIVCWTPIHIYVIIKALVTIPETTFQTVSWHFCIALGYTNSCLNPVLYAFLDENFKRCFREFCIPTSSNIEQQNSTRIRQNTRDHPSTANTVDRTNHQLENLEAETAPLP
Text: (§1) Human embryonic kidney 293 (HEK-293) cells which transfected overexpress (3-arrestin2 fused β-galactosidase fragment were purchased from DiscoverX. Human OPRM1 gene (NM 000914.3, encoding human μ-opioid receptor, OPRM) and Human OPRD1 gene (NM 000911.3, encoding human δ-opioid receptor, OPRD) were fused to a pCMV-ProLink plasmid which contains complementary β-galactosidase fragment purchased from DiscoverX. To generate human OPRM1 or OPRD1 expression cell lines, HEK-293 cells were transfected to prepared plasmid and grown in DMEM medium with 10% fetal bovine serum, 150 μg/mL Hygromycin B and 500 μg/mL G418.
(§2) The PathHunter enzyme assay was performed to measure the agonist's capability of β-arrestin 2 pathway activation. When agonists bind to G protein-coupled receptor (GPCR), the receptor pathway is sequentially activated from G protein to β-arrestin 2 recruitment.
(§3) Because […] β-arrestin 2 and C-terminal of GPCR have a fragment of β-galactosidase, recruitment of β-arrestin 2 to GPCR forms the whole β-galactosidase. The functionality of the whole β-galactosidase is detected by chemiluminescence (FlexStation3, Molecular Devices).
(§4) cAMP and β-arrestin assays described above were conducted to decide whether candidate compounds were μ- and/or δ-opioid receptor bias agonists for the G-protein pathway. All assays produced the concentration-response curve, and the curve data was validated by a quality control factor named Z′ factor. Because half-maximal effect concentration (EC50) depends on the population of receptors, the maximal asymptote of the concentration curve was used. Efficacy data of candidates was normalized by comparison to reference agonists DAMGO and SNC80 for OPRM and OPRD.

[2] = biological target: T2, human δ-opioid receptor, OPRD (Homo sapiens, UniProt P41143); assay: cAMP accumulation assay (Gi pathway), OPRD cell line; conditions: for OPRD Gi Hill slope: cAMP concentration-response curve; for Emax: normalized to reference agonist SNC80
T2 construct: host or cells: HEK-293 overexpressing β-arrestin2 fused to a β-galactosidase fragment
T2 sequence (P41143 whole entry, the tested form may be a part): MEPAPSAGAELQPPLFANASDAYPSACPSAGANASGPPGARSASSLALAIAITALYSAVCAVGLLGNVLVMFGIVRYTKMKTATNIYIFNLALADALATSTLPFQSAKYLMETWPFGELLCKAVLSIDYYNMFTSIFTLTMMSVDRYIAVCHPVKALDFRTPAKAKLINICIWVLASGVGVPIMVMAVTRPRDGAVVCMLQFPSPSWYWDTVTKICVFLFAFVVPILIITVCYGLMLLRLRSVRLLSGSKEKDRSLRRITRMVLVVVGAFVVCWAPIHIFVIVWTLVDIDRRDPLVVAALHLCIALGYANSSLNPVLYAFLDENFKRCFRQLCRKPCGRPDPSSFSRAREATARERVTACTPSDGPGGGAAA
Text: as §1
(§5) Cyclic Adenosine Monophosphate (cAMP) Accumulation
(§6) The agonist's efficacy to the G protein pathway was determined by changes in the cAMP level using the Cisbio cAMP detection kit. The cells used in cAMP assays are the same cell line as used in the β-arrestin 2 assays. The human opioid receptor activates the Gαi so intracellular cAMP accumulation is inhibited. Cisbio detection kit uses labeled cAMP and antibody. This system proceeds to compete with endogenous cAMP. If Gαi is activated, intracellular cAMP decreases. This assures that labeled-cAMP binds more with the antibody so that time-resolved fluorescence […].
as §4
(§7) The hill slope describes the steepness of the curve. […] We set the appropriate interval of hill slope as 0.8<n<1.5 which maintains the sigmoidal curve shape.

[3] = biological target: T1, human μ-opioid receptor, OPRM; assay: Dominant assay: cAMP assay with/without irreversible antagonist β-FNA, OPRM cell line; conditions: for maximal response on decreasing receptor population (dominant tendency), in words: OPRM cell lines, β-FNA
Text: (§8) To confirm the agonist's efficacy in a nature-like system, we need inactivation of target receptors on the cell membrane. Most cell lines have an abundant target receptor population (also known as spare receptors). Therefore, agonists have more opportunity to constitute agonist-receptor conformation. In this environment, not only full agonists but also partial agonists can reach maximal response.
(§9) If the partial agonist is selected as a full agonist, translational in vivo research will likely fail.
(§10) Non-competitive, irreversible antagonists can be applicable to judge the pharmacological character of agonists because they permanently decrease the receptor population in the cell line system. β-FNA or β-CNA is used as a non-competitive and irreversible antagonist for OPRM, OPRD. Before cAMP assay, cells were incubated with β-FNA or β-CNA for 40 minutes. Afterwards, the procedure is the same.
(§11) If a partial agonist compound acts as a full agonist due to receptor population (pseudo full agonist), it cannot sustain maximal response with reduced receptor population. However, a full agonist compound maintains their maximal response even though increased EC50.

[4] = biological target: T2, human δ-opioid receptor, OPRD; assay: PathHunter β-arrestin 2 assay, OPRD cell line
Text: as §1, §2, §3, §4

[5] = biological target: T1, human μ-opioid receptor, OPRM; assay: cAMP accumulation assay (Gi pathway), OPRM cell line; conditions: for EC50 / OPRM Gi Hill slope / Emax: Table 1; for EC50 / Emax: cAMP; for OPRM Gi Hill slope: cAMP concentration-response curve; for Emax: normalized to reference agonist DAMGO
Text: as §1, §5, §6, §4, §7

[6] = biological target: T2, human δ-opioid receptor, OPRD; assay: Dominant assay: cAMP assay with/without irreversible antagonist β-CNA, OPRD cell line; conditions: for maximal response on decreasing receptor population (dominant tendency), in words: OPRD cell lines, β-CNA; for completeness of concentration-response curve, in words: OPRD system
Text: as §8, §9, §10, §11

[7] = Example 3, Tables 5-7, read-out: OPRM β-ARR2 Emax (%)
[8] = Table 1, normalized to reference agonist DAMGO, read-out: OPRM arrestin Emax, %
[9] = Table 1, cAMP, read-out: OPRD Gi EC50
[10] = addition of β-FNA, Example 3, Tables 5-7, read-out: OPRM Gi β-FNA (+) EC50
[11] = addition of β-FNA, Example 3, Tables 5-7, read-out: OPRM Gi β-FNA (+) Emax (%)
[12] = addition of β-FNA, repeated dominant assay, Example 4, Tables 8-10, read-out: OPRM Gi β-FNA (+) EC50
[13] = addition of β-FNA, repeated dominant assay, Example 4, Tables 8-10, read-out: OPRM Gi β-FNA (+) Emax (%)
[14] = no addition of β-FNA, Example 3, Tables 5-7, read-out: OPRM Gi β-FNA (−) EC50
[15] = no addition of β-FNA, Example 3, Tables 5-7, read-out: OPRM Gi β-FNA (−) Emax (%)
[16] = no addition of β-FNA, repeated dominant assay, Example 4, Tables 8-10, read-out: OPRM Gi β-FNA (−) EC50
[17] = no addition of β-FNA, repeated dominant assay, Example 4, Tables 8-10, read-out: OPRM Gi β-FNA (−) Emax (%)
[18] = Example 3, Tables 5-7, read-out: OPRD β-ARR2 Emax (%)
[19] = Table 1, normalized to reference agonist SNC80, read-out: OPRD arrestin Emax, %
[20] = addition of β-CNA, Example 3, Tables 5-7, read-out: OPRD Gi β-CNA (+) EC50
[21] = addition of β-CNA, Example 3, Tables 5-7, read-out: OPRD Gi β-CNA (+) Emax (%)
[22] = addition of β-CNA, repeated dominant assay, Example 4, Tables 8-10, read-out: OPRD Gi β-CNA (+) EC50
[23] = addition of β-CNA, repeated dominant assay, Example 4, Tables 8-10, read-out: OPRD Gi β-CNA (+) Emax (%)
[24] = no addition of β-CNA, Example 3, Tables 5-7, read-out: OPRD Gi β-CNA (−) EC50
[25] = no addition of β-CNA, Example 3, Tables 5-7, read-out: OPRD Gi β-CNA (−) Emax (%)
[26] = no addition of β-CNA, repeated dominant assay, Example 4, Tables 8-10, read-out: OPRD Gi β-CNA (−) EC50
[27] = no addition of β-CNA, repeated dominant assay, Example 4, Tables 8-10, read-out: OPRD Gi β-CNA (−) Emax (%)

## CN1CCc2cc(C(CNC(=O)Nc3ccc(F)cc3)N(C)C)ccc21 (racemic) [Compound 2, 3-[2-(dimethylamino)-2-(1-methyl-2,3-dihydro-1H-indol-5-yl)ethyl]-1-(4-fluorophenyl)urea]
[1]; [7]
  Emax: 15.3%
[1]; [8]
  Emax: 15.3%
[2]; Table 1
  OPRD Gi Hill slope: 1.44
[2]; Table 1, cAMP
  Emax: 92.4%
[2]; [9]
  EC50: 1050 nM
[3]
  maximal response on decreasing receptor population (dominant tendency), in words: showed a similar pattern as compared to DAMGO; also recorded: resistant to decreasing spare receptors; also recorded: resistant to decreasing spare receptor-induced tendency
[3]; [10]
  EC50: 1170 nM
[3]; [11]
  Emax: 80.1%
[3]; [12]
  EC50: 4190 nM
[3]; [13]
  Emax: 77.4%
[3]; [14]
  EC50: 682 nM
[3]; [15]
  Emax: 98.6%
[3]; [16]
  EC50: 1700 nM
[3]; [17]
  Emax: 103%
[4]; [18]
  Emax: 4.66%
[4]; [19]
  Emax: 4.66%
[5]
  EC50: 1880 nM
  OPRM Gi Hill slope: 0.94
  Emax: 109%
[6]
  maximal response on decreasing receptor population (dominant tendency), in words: resistant to decreasing spare receptors; also recorded: resistant to decreasing spare receptor-induced tendency
  completeness of concentration-response curve, in words: produced a full concentration-response curve
[6]; [20]
  EC50: 2380 nM
[6]; [21]
  Emax: 78.5%
[6]; [22]
  EC50: 6220 nM
[6]; [23]
  Emax: 70.2%
[6]; [24]
  EC50: 4.98 nM
[6]; [25]
  Emax: 98.9%
[6]; [26]
  EC50: 1650 nM
[6]; [27]
  Emax: 100%

## Cc1ccccc1NC(=O)NCC(c1ccc2c(c1)CCO2)N(C)C (racemic) [Compound 3, 3-[2-(2,3-dihydro-1-benzofuran-5-yl)-2-(dimethylamino)ethyl]-1-(2-methylphenyl)urea]
[1]; [7]
  Emax: 12.2%
[1]; [8]
  Emax: 12.2%
[2]; Table 1
  OPRD Gi Hill slope: 1.16
[2]; Table 1, cAMP
  Emax: 94.6%
[2]; [9]
  EC50: 8370 nM
[3]
  maximal response on decreasing receptor population (dominant tendency), in words: showed a similar pattern as compared to DAMGO
[3]; [10]
  EC50: 1580 nM
[3]; [11]
  Emax: 91.3%
[3]; [12]
  EC50: 22.7 nM
[3]; [13]
  Emax: 75.5%
[3]; [14]
  EC50: 656 nM
[3]; [15]
  Emax: 97.9%
[3]; [16]
  EC50: 36 nM
[3]; [17]
  Emax: 102%
[4]; [18]
  Emax: 1.99%
[4]; [19]
  Emax: 1.99%
[5]
  EC50: 1290 nM
  OPRM Gi Hill slope: 1.48
  Emax: 112%
[6]
  completeness of concentration-response curve, in words: curve was cut due to the X-axis limitation
[6]; [20]
  EC50: 10600 nM
[6]; [21]
  Emax: 50.9%
[6]; [22]
  EC50: 4450 nM
[6]; [23]
  Emax: 48.2%
[6]; [24]
  EC50: 4350 nM
[6]; [25]
  Emax: 106%
[6]; [26]
  EC50: 3630 nM
[6]; [27]
  Emax: 100%

## COc1ccsc1CNCC[C@@]1(c2ccccn2)CCOC2(CCCC2)C1 [TRV130, reference compound]
[1]; [7]
  Emax: 2.4%
[1]; [8]
  Emax: 2.41%
[2]
  EC50: 2040 nM
[2]; Table 1
  OPRD Gi Hill slope: 1.28
[2]; Table 1, cAMP
  Emax: 63.4%
[3]
  maximal response on decreasing receptor population (dominant tendency), in words: susceptible to decreasing receptor populations than DAMGO; also recorded: attenuates the efficacy; also recorded: more susceptible to decreasing receptor populations than DAMGO
[3]; [11]
  Emax: 56.3%
[3]; [15]
  Emax: 89.5%
[4]; [18]
  Emax: 9.6%
[4]; [19]
  Emax: 9.6%
[5]; OPRM
  Gi pathway agonism, in words: full agonism
[5]
  OPRM Gi Hill slope: 0.35
  Emax: 101%
[6]; OPRD Gi β-CNA (+) EC50 (nM), addition of β-CNA, Example 3, Tables 5-7
  EC50: 1200 nM
[6]; OPRD Gi β-CNA (−) EC50 (nM), no addition of β-CNA, Example 3, Tables 5-7
  EC50: 1.49 nM
[6]
  maximal response on decreasing receptor population (dominant tendency), in words: more susceptible to decreasing receptor populations than SNC80; also recorded: less resistance to decreasing spare receptors than SNC80
  completeness of concentration-response curve, in words: produced a full concentration-response curve
[6]; [21]
  Emax: 67.2%
[6]; [25]
  Emax: 73.9%
